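Tested at 5 concentrations; 48 h exposure; 96-well plates; endpoints linearly interpolated, else capped at highest concentration. The concentration for full growth arrest is given as TGI.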
Experiments:
Test in all cases: NCI tumour cell line growth inhibition, 48 h
HCT-15 colon = tested on: HCT-15 colon
NCI-H522 lung = tested on: NCI-H522 lung
SW-620 colon = tested on: SW-620 colon
MDA-MB-435 = tested on: MDA-MB-435
SR leukemia = tested on: SR leukemia
SK-MEL-28 melanoma = tested on: SK-MEL-28 melanoma
EKVX NSCLC = tested on: EKVX NSCLC
OVCAR-5 ovarian = tested on: OVCAR-5 ovarian
IGROV1 ovarian = tested on: IGROV1 ovarian
RXF 393 renal = tested on: RXF 393 renal
MCF7 breast = tested on: MCF7 breast
SF-268 CNS = tested on: SF-268 CNS
NCI-H23 lung = tested on: NCI-H23 lung
RPMI-8226 leukemia = tested on: RPMI-8226 leukemia
SK-MEL-5 melanoma = tested on: SK-MEL-5 melanoma
T-47D breast = tested on: T-47D breast
HOP-62 NSCLC = tested on: HOP-62 NSCLC
K-562 leukemia = tested on: K-562 leukemia
OVCAR-3 ovarian = tested on: OVCAR-3 ovarian
CCRF-CEM leukemia = tested on: CCRF-CEM leukemia
NCI-H226 lung = tested on: NCI-H226 lung
HS 578T breast = tested on: HS 578T breast
A498 renal = tested on: A498 renal
MOLT-4 leukemia = tested on: MOLT-4 leukemia
UACC-257 melanoma = tested on: UACC-257 melanoma
ACHN renal = tested on: ACHN renal
SK-OV-3 ovarian = tested on: SK-OV-3 ovarian
UO-31 renal = tested on: UO-31 renal
HCT-116 colon = tested on: HCT-116 colon
NCI/ADR-RES ovarian = tested on: NCI/ADR-RES ovarian
KM12 colon = tested on: KM12 colon
HL-60(TB) leukemia = tested on: HL-60(TB) leukemia
786-0 renal = tested on: 786-0 renal
OVCAR-4 ovarian = tested on: OVCAR-4 ovarian
NCI-H460 lung = tested on: NCI-H460 lung
TK-10 renal = tested on: TK-10 renal
SF-295 CNS = tested on: SF-295 CNS
SF-539 CNS = tested on: SF-539 CNS
OVCAR-8 ovarian = tested on: OVCAR-8 ovarian
M14 melanoma = tested on: M14 melanoma
HT29 colon = tested on: HT29 colon
CAKI-1 renal = tested on: CAKI-1 renal
LOX IMVI melanoma = tested on: LOX IMVI melanoma
MDA-N = tested on: MDA-N
DU-145 prostate = tested on: DU-145 prostate
SNB-19 CNS = tested on: SNB-19 CNS
COLO 205 colon = tested on: COLO 205 colon
A549 NSCLC = tested on: A549 NSCLC
HCC-2998 colon = tested on: HCC-2998 colon
HOP-92 NSCLC = tested on: HOP-92 NSCLC
SNB-75 CNS = tested on: SNB-75 CNS
MALME-3M melanoma = tested on: MALME-3M melanoma
U251 CNS = tested on: U251 CNS
PC-3 prostate = tested on: PC-3 prostate
UACC-62 melanoma = tested on: UACC-62 melanoma
SK-MEL-2 melanoma = tested on: SK-MEL-2 melanoma
SN12C renal = tested on: SN12C renal
MDA-MB-231 breast = tested on: MDA-MB-231 breast

CC1=NN(c2cccc(Cl)c2)C(=N/c2nc3ccccc3s2)/C1=C\C=C\c1ccccc1
TGI (HCT-15 colon): > 100 µM
TGI (NCI-H522 lung): 92.3 µM
TGI (SW-620 colon): > 100 µM
TGI (MDA-MB-435): > 100 µM
TGI (SR leukemia): 25.9 µM
TGI (SK-MEL-28 melanoma): > 100 µM
TGI (EKVX NSCLC): > 100 µM
TGI (OVCAR-5 ovarian): > 100 µM
TGI (IGROV1 ovarian): 82.8 µM
TGI (RXF 393 renal): > 100 µM
TGI (MCF7 breast): > 100 µM
TGI (SF-268 CNS): > 100 µM
TGI (NCI-H23 lung): > 100 µM
TGI (RPMI-8226 leukemia): 81.2 µM
TGI (SK-MEL-5 melanoma): 59.2 µM
TGI (T-47D breast): > 100 µM
TGI (HOP-62 NSCLC): > 100 µM
TGI (K-562 leukemia): > 100 µM
TGI (OVCAR-3 ovarian): 78.9 µM
TGI (CCRF-CEM leukemia): > 100 µM
TGI (NCI-H226 lung): > 100 µM
TGI (HS 578T breast): 87.6 µM
TGI (A498 renal): 75.5 µM
TGI (MOLT-4 leukemia): 3.48 µM
TGI (UACC-257 melanoma): > 100 µM
TGI (ACHN renal): 88.2 µM
TGI (SK-OV-3 ovarian): > 100 µM
TGI (UO-31 renal): > 100 µM
TGI (HCT-116 colon): > 100 µM
TGI (NCI/ADR-RES ovarian): > 100 µM
TGI (KM12 colon): > 100 µM
TGI (HL-60(TB) leukemia): 92.8 µM
TGI (786-0 renal): > 100 µM
TGI (OVCAR-4 ovarian): > 100 µM
TGI (NCI-H460 lung): > 100 µM
TGI (TK-10 renal): > 100 µM
TGI (SF-295 CNS): > 100 µM
TGI (SF-539 CNS): > 100 µM
TGI (OVCAR-8 ovarian): > 100 µM
TGI (M14 melanoma): > 100 µM
TGI (HT29 colon): > 100 µM
TGI (CAKI-1 renal): > 100 µM
TGI (LOX IMVI melanoma): > 100 µM
TGI (MDA-N): > 100 µM
TGI (DU-145 prostate): > 100 µM

Cc1c(NC(=O)CCCl)c(=O)oc2c(C)c3occc(=O)c3cc12
TGI (HCT-15 colon): > 100 µM
TGI (SW-620 colon): > 100 µM
TGI (SR leukemia): > 100 µM
TGI (SK-MEL-28 melanoma): > 100 µM
TGI (EKVX NSCLC): > 100 µM
TGI (OVCAR-5 ovarian): > 100 µM
TGI (IGROV1 ovarian): > 100 µM
TGI (RXF 393 renal): > 100 µM
TGI (SNB-19 CNS): > 100 µM
TGI (MCF7 breast): > 100 µM
TGI (SF-268 CNS): > 100 µM
TGI (COLO 205 colon): > 100 µM
TGI (A549 NSCLC): > 100 µM
TGI (NCI-H23 lung): > 100 µM
TGI (RPMI-8226 leukemia): > 100 µM
TGI (SK-MEL-5 melanoma): > 100 µM
TGI (T-47D breast): > 100 µM
TGI (HOP-62 NSCLC): > 100 µM
TGI (K-562 leukemia): > 100 µM
TGI (CCRF-CEM leukemia): > 100 µM
TGI (HS 578T breast): > 100 µM
TGI (A498 renal): 76.2 µM
TGI (MOLT-4 leukemia): > 100 µM
TGI (UACC-257 melanoma): > 100 µM
TGI (ACHN renal): > 100 µM
TGI (SK-OV-3 ovarian): > 100 µM
TGI (HCC-2998 colon): > 100 µM
TGI (UO-31 renal): > 100 µM
TGI (HCT-116 colon): > 100 µM
TGI (NCI/ADR-RES ovarian): > 100 µM
TGI (KM12 colon): > 100 µM
TGI (HOP-92 NSCLC): > 100 µM
TGI (HL-60(TB) leukemia): > 100 µM
TGI (786-0 renal): > 100 µM
TGI (OVCAR-4 ovarian): > 100 µM
TGI (NCI-H460 lung): > 100 µM
TGI (TK-10 renal): > 100 µM
TGI (SF-295 CNS): > 100 µM
TGI (SNB-75 CNS): > 100 µM
TGI (MALME-3M melanoma): > 100 µM
TGI (OVCAR-8 ovarian): > 100 µM
TGI (U251 CNS): > 100 µM
TGI (M14 melanoma): > 100 µM
TGI (HT29 colon): > 100 µM
TGI (CAKI-1 renal): > 100 µM
TGI (MDA-N): > 100 µM
TGI (DU-145 prostate): > 100 µM

O=C1OC(C2Cc3cc4c(cc3C2=O)CCC4)c2ccccc21 (stereo not drawn)
TGI (HCT-15 colon): > 100 µM
TGI (NCI-H522 lung): > 100 µM
TGI (SW-620 colon): > 100 µM
TGI (MDA-MB-435): > 100 µM
TGI (SR leukemia): > 100 µM
TGI (SK-MEL-28 melanoma): > 100 µM
TGI (EKVX NSCLC): > 100 µM
TGI (OVCAR-5 ovarian): > 100 µM
TGI (IGROV1 ovarian): > 100 µM
TGI (SNB-19 CNS): > 100 µM
TGI (MCF7 breast): > 100 µM
TGI (PC-3 prostate): > 100 µM
TGI (SF-268 CNS): > 100 µM
TGI (COLO 205 colon): > 100 µM
TGI (A549 NSCLC): > 100 µM
TGI (NCI-H23 lung): > 100 µM
TGI (RPMI-8226 leukemia): > 100 µM
TGI (UACC-62 melanoma): > 100 µM
TGI (SK-MEL-5 melanoma): > 100 µM
TGI (T-47D breast): > 100 µM
TGI (HOP-62 NSCLC): > 100 µM
TGI (K-562 leukemia): > 100 µM
TGI (OVCAR-3 ovarian): > 100 µM
TGI (CCRF-CEM leukemia): > 100 µM
TGI (NCI-H226 lung): 58.6 µM
TGI (HS 578T breast): > 100 µM
TGI (SK-MEL-2 melanoma): > 100 µM
TGI (SN12C renal): > 100 µM
TGI (A498 renal): 61.6 µM
TGI (MOLT-4 leukemia): 64.4 µM
TGI (UACC-257 melanoma): > 100 µM
TGI (ACHN renal): > 100 µM
TGI (SK-OV-3 ovarian): > 100 µM
TGI (HCC-2998 colon): 98.7 µM
TGI (UO-31 renal): > 100 µM
TGI (HCT-116 colon): > 100 µM
TGI (NCI/ADR-RES ovarian): > 100 µM
TGI (KM12 colon): > 100 µM
TGI (HL-60(TB) leukemia): > 100 µM
TGI (786-0 renal): > 100 µM
TGI (OVCAR-4 ovarian): > 100 µM
TGI (NCI-H460 lung): > 100 µM
TGI (TK-10 renal): > 100 µM
TGI (SF-295 CNS): > 100 µM
TGI (SNB-75 CNS): > 100 µM
TGI (SF-539 CNS): 80.4 µM
TGI (MALME-3M melanoma): > 100 µM
TGI (MDA-MB-231 breast): > 100 µM
TGI (OVCAR-8 ovarian): > 100 µM
TGI (U251 CNS): > 100 µM
TGI (M14 melanoma): > 100 µM
TGI (HT29 colon): > 100 µM
TGI (CAKI-1 renal): > 100 µM
TGI (LOX IMVI melanoma): > 100 µM
TGI (MDA-N): > 100 µM
TGI (DU-145 prostate): > 100 µM
